Measurements taken from the NIST ThermoML archive (doi:10.1016/j.jct.2013.12.010).

Assay: cn = amount concentration of the nth substance listed, in mol/dm3
Conditions: 298.15 K, 101 kPa, Liquid, Taylor dispersion method

binary diffusion coefficient (c1 = 0.005) | binary diffusion coefficient (c1 = 0.1) | Structure (SMILES)
6.2e-10 m2/s |  | N[C@@H](Cc1ccc(O)c(O)c1)C(=O)O [L-3,4-dihydroxyphenylalanine] + O
2.99e-09 m2/s | 2.9e-09 m2/s | Cl [hydrogen chloride] + O
